Measurements as given in article PMC9226319, “Peripherally restricted transthyretin-based delivery system for probes and therapeutics avoiding opioid-related side effects” (Nature Communications, 2022).
“And” between values parts separate entries of the source, which are not always exact repeats. Identical values can stand only once. Like-named read-outs stand apart in the source and are kept apart here.

Legend:
male Sprague-Dawley rats [1] = assay: Gastrointestinal (GI) transit (charcoal meal) assays; assay type: in vivo, rat; details: rat, in vivo, sc
male Sprague-Dawley rats [2] = details: rat, in vivo
in vivo [3] = details: male, Sprague Dawley, rat, sc, 16 umol/kg
in vivo [4] = details: male, Sprague Dawley, rat, iv, 4.84 umol/kg
[5] = rat, single SC dose 16 µmol/kg
[6] = rat, single IV bolus 4.84 µmol/kg
[7] = target: human mu-opioid receptors (Homo sapiens, UniProt P35372); assay: biochemical; assay type: binding
purified human TTR = purified human TTR (Homo sapiens, UniProt P02766); assay: Fluorescence polarization (FP) binding assay, ligands to TTR in buffer
TTR in human serum = TTR in human serum (Homo sapiens, UniProt P02766); assay: TTR serum fluorescent probe exclusion (FPE) selectivity assay; assay type: binding; details: ligand 10 µM; for %FPE probe fluorescence: human serum, replicates

Sequence of human mu-opioid receptors (P35372 whole entry): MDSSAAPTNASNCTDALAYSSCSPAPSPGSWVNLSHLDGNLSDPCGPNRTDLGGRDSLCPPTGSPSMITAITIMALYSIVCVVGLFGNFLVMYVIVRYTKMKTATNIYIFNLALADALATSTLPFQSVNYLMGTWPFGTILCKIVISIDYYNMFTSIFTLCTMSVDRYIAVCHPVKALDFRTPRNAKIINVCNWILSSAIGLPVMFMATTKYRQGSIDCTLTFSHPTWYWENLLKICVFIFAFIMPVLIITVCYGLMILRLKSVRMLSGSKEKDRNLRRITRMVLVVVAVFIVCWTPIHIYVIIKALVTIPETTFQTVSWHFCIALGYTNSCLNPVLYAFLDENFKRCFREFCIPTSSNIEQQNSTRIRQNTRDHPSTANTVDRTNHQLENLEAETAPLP

## CN1CC[C@]23c4c5ccc(O)c4O[C@H]2[C@@H](O)C=C[C@H]3[C@H]1C5 [Morphine, reference compound]
Male Sprague-Dawley rats [1]
  GI transit as % of saline group: 18.81% and 20.1% and 15.01% and 14.94% and 19.9%
Male Sprague-Dawley rats [2]; iv
  hot plate latency: 60 s
Male Sprague-Dawley rats [2]; sc
  hot plate latency: 57.0 ± 2.5 s and 60 s
  hot plate latency, compound alone: 60 s

## C=CCN1CC[C@]23c4c5ccc(O)c4O[C@H]2C(=O)CC[C@@]3(O)[C@H]1C5 [Naloxone, reference compound]
In vivo [3]
  AUC(0-inf): 1.76 ± 0.237 µM·h
  CL/F: 152 mL/min/kg
  Vd/F: 8.94 ± 2.08 L/kg
  half-life: 40.2 ± 4.2 min
In vivo [4]
  AUC(0-inf): 1.46 ± 0.257 µM·h
  Vd: 1.23 ± 0.42 L/kg
  clearance: 56.5 mL/min/kg
  half-life: 52.2 ± 7.8 min
[5]
  k: 1.03 ± 0.1 h⁻¹
[6]
  k: 0.81 ± 0.13 h⁻¹

## C=CCN1CC[C@]23c4c5ccc(O)c4O[C@H]2[C@@H](OCc2cn(CCOCCOCCNCCCCCCOc4cc(OCCCc6c(C)n[nH]c6C)cc(C(=O)O)c4)nn2)CC[C@@]3(O)[C@H]1C5 [AG10-L1-Nal]
[7]
  fold decrease in mu-opioid receptor binding affinity when TTR was present: 9 fold
  fold higher mu-opioid receptor binding affinity than naloxegol: 3.5 fold
  fold lower mu-opioid receptor binding affinity than naloxone: 3 fold
[7]; binding affinity to mu-opioid receptor (Ki)
  Ki: 0.81 nM
[7]; binding affinity to mu-opioid receptor (Ki) in the presence of TTR
  Ki: 7.4 nM
Purified human TTR
  Kd: 485 nM
Purified human TTR; log [nM] inhibitor 0.990
  % Fluorescence polarization (mean): 100.000%
Purified human TTR; log [nM] inhibitor 1.291
  % Fluorescence polarization (mean): 101.730%
Purified human TTR; log [nM] inhibitor 1.592
  % Fluorescence polarization (mean): 105.820%
Purified human TTR; log [nM] inhibitor 1.893
  % Fluorescence polarization (mean): 101.210%
Purified human TTR; log [nM] inhibitor 2.194
  % Fluorescence polarization (mean): 93.370%
Purified human TTR; log [nM] inhibitor 2.495
  % Fluorescence polarization (mean): 87.150%
Purified human TTR; log [nM] inhibitor 2.796
  % Fluorescence polarization (mean): 78.760%
Purified human TTR; log [nM] inhibitor 3.097
  % Fluorescence polarization (mean): 63.020%
Purified human TTR; log [nM] inhibitor 3.398
  % Fluorescence polarization (mean): 50.120%
Purified human TTR; log [nM] inhibitor 3.699
  % Fluorescence polarization (mean): 44.570%
Purified human TTR; log [nM] inhibitor 4.000
  % Fluorescence polarization (mean): 22.560%
Purified human TTR; log [nM] inhibitor […]
  % Fluorescence polarization (mean): 0.000%
TTR in human serum; FPE probe 3.6 µM, 3 h reading relative to probe alone, text mean ± s.d., table replicates
  % TTR occupancy in human serum: 71.5 ± 1.8% and 70.26% and 71.49% and 74.04% and 70.09%
TTR in human serum; time 0.000 h
  %FPE probe fluorescence: 0.000%
TTR in human serum; time 0.083 h
  %FPE probe fluorescence: 1.080% and 0.767% and -1.456% and -0.892%
TTR in human serum; time 0.250 h
  %FPE probe fluorescence: 2.570% and 0.301% and -1.690% and -0.400%
TTR in human serum; time 0.500 h
  %FPE probe fluorescence: 1.410% and 3.016% and 1.843% and 4.013%
TTR in human serum; time 1.000 h
  %FPE probe fluorescence: 5.261% and 6.236% and 4.568% and 2.982%
TTR in human serum; time 1.250 h
  %FPE probe fluorescence: 9.024% and 8.732% and 5.446% and 7.822%
TTR in human serum; time 1.500 h
  %FPE probe fluorescence: 10.681% and 11.389% and 3.787% and 9.124%
TTR in human serum; time 1.750 h
  %FPE probe fluorescence: 16.590% and 14.034% and 12.392% and 15.982%
TTR in human serum; time 2.000 h
  %FPE probe fluorescence: 16.797% and 16.410% and 12.993% and 18.679%
TTR in human serum; time 2.250 h
  %FPE probe fluorescence: 24.164% and 18.098% and 17.162% and 21.660%
TTR in human serum; time 2.500 h
  %FPE probe fluorescence: 24.735% and 22.591% and 22.580% and 23.970%
TTR in human serum; time 2.750 h
  %FPE probe fluorescence: 27.729% and 25.808% and 22.823% and 27.770%
TTR in human serum; time 3.000 h
  %FPE probe fluorescence: 29.742% and 28.511% and 25.959% and 29.908%
TTR in human serum; time 3.500 h
  %FPE probe fluorescence: 34.408% and 33.995% and 32.949% and 35.412%
TTR in human serum; time 3.750 h
  %FPE probe fluorescence: 36.701% and 36.516% and 34.676% and 37.256%
TTR in human serum; time 4.000 h
  %FPE probe fluorescence: 39.055% and 39.875% and 38.359% and 40.118%
TTR in human serum; time 4.250 h
  %FPE probe fluorescence: 42.939% and 41.758% and 38.579% and 41.416%
TTR in human serum; time 4.500 h
  %FPE probe fluorescence: 43.175% and 42.158% and 39.564% and 43.974%
TTR in human serum; time 4.750 h
  %FPE probe fluorescence: 49.116% and 47.668% and 46.875% and 46.250%
TTR in human serum; time 5.000 h
  %FPE probe fluorescence: 48.320% and 48.257% and 45.947% and 47.487%
TTR in human serum; time 5.250 h
  %FPE probe fluorescence: 49.797% and 50.503% and 44.600% and 50.002%
TTR in human serum; time 5.500 h
  %FPE probe fluorescence: 51.668% and 52.681% and 50.017% and 50.897%
TTR in human serum; time 5.750 h
  %FPE probe fluorescence: 52.829% and 53.093% and 50.389% and 55.989%
TTR in human serum; time 6.000 h
  %FPE probe fluorescence: 53.052% and 53.791% and 49.880% and 55.657%
